# Tested on: MV-4-11 cells
# Experiment: Gene expression microarray analysis (Affymetrix PrimeView) and GSEA
# Assay type: cell-based, human
# Design: RFU PODN (11730768_x_at) / Fold change /veh PODN (11730768_x_at) / RFU LINC00158 (11744669_a_at) / Fold change /veh LINC00158 (11744669_a_at) / RFU DUSP10 (11751237_a_at) / Fold change /veh DUSP10 (11751237_a_at) / RFU ID3 (11757404_x_at) / Fold change /veh ID3 (11757404_x_at) / RFU PLEKHG5 (11737974_s_at) / Fold change /veh PLEKHG5 (11737974_s_at) / RFU LRRC4B (11730491_at) / Fold change /veh LRRC4B (11730491_at) / RFU GIMAP4 (11747438_a_at) / Fold change /veh GIMAP4 (11747438_a_at) / RFU KRT8 (11758183_x_at) / Fold change /veh KRT8 (11758183_x_at) / RFU CNN1 (11734310_a_at) / Fold change /veh CNN1 (11734310_a_at) / RFU VPS37D (11726825_at) / Fold change /veh VPS37D (11726825_at) / RFU C10orf10 (11716522_x_at) / Fold change /veh C10orf10 (11716522_x_at) / RFU KIR2DL2 /// KIR2DL4 /// KIR2DL5A /// KIR2DL5B /// KIR2DS1 /// KIR2DS2 /// KIR2DS3 /// KIR2DS4 /// KIR3DL3 /// KIR3DL3 /// KIR3DS1 (11738374_at) / Fold change /veh KIR2DL2 /// KIR2DL4 /// KIR2DL5A /// KIR2DL5B /// KIR2DS1 /// KIR2DS2 /// KIR2DS3 /// KIR2DS4 /// KIR3DL3 /// KIR3DL3 /// KIR3DS1 (11738374_at) / RFU C1QL1 (11718748_at) / Fold change /veh C1QL1 (11718748_at) / RFU TMPRSS4 (11747572_a_at) / Fold change /veh TMPRSS4 (11747572_a_at) / RFU HAMP (11756126_x_at) / Fold change /veh HAMP (11756126_x_at) / RFU RNFT2 (11725882_a_at) / Fold change /veh RNFT2 (11725882_a_at) / RFU NR4A2 (11747474_a_at) / Fold change /veh NR4A2 (11747474_a_at) / RFU ABCC12 (11746883_a_at) / Fold change /veh ABCC12 (11746883_a_at) / RFU TMEM136 (11760407_x_at) / Fold change /veh TMEM136 (11760407_x_at) / RFU CLDN22 /// WWC2 (11732394_at) / Fold change /veh CLDN22 /// WWC2 (11732394_at) / RFU HLA-DPB1 (11760878_x_at) / Fold change /veh HLA-DPB1 (11760878_x_at) / RFU SPINT1 (11716480_a_at) / Fold change /veh SPINT1 (11716480_a_at) / RFU GAP43 (11754022_s_at) / Fold change /veh GAP43 (11754022_s_at) / RFU A4GNT (11735810_at) / Fold change /veh A4GNT (11735810_at) / RFU PRB3 (11715151_x_at) / Fold change /veh PRB3 (11715151_x_at) / RFU TUBB4B (11761932_at) / Fold change /veh TUBB4B (11761932_at) / RFU CAPN14 (11732068_a_at) / Fold change /veh CAPN14 (11732068_a_at) / RFU TMCC2 (11721928_a_at) / Fold change /veh TMCC2 (11721928_a_at) / RFU IRGQ (11745062_a_at) / Fold change /veh IRGQ (11745062_a_at) / RFU FAM174B (11720279_a_at) / Fold change /veh FAM174B (11720279_a_at) / RFU TMPRSS4 (11748680_a_at) / Fold change /veh TMPRSS4 (11748680_a_at) / RFU FAM212B (11763350_a_at) / Fold change /veh FAM212B (11763350_a_at) / RFU PLEKHG5 (11743358_a_at) / Fold change /veh PLEKHG5 (11743358_a_at) / RFU ZSCAN30 (11745921_a_at) / Fold change /veh ZSCAN30 (11745921_a_at) / RFU CMKLR1 (11741424_a_at) / Fold change /veh CMKLR1 (11741424_a_at) / RFU LOC101060620 /// MAPK8IP1 (11723275_at) / Fold change /veh LOC101060620 /// MAPK8IP1 (11723275_at) / RFU SPTSSB (11747773_x_at) / Fold change /veh SPTSSB (11747773_x_at) / RFU PRSS12 (11739890_at) / Fold change /veh PRSS12 (11739890_at) / RFU BIN1 (11741810_x_at) / Fold change /veh BIN1 (11741810_x_at) / RFU WNT11 (11732464_a_at) / Fold change /veh WNT11 (11732464_a_at) / RFU C10orf10 (11716521_a_at) / Fold change /veh C10orf10 (11716521_a_at) / RFU C5orf56 (11738089_at) / Fold change /veh C5orf56 (11738089_at) / RFU CYB561 (11721691_x_at) / Fold change /veh CYB561 (11721691_x_at) / RFU ANKRD19P (11752326_a_at) / Fold change /veh ANKRD19P (11752326_a_at) / RFU OR2T12 /// OR2T33 /// OR2T8 (11738714_s_at) / Fold change /veh OR2T12 /// OR2T33 /// OR2T8 (11738714_s_at) / RFU VCAN (11748164_a_at) / Fold change /veh VCAN (11748164_a_at) / RFU JSRP1 (11732532_at) / Fold change /veh JSRP1 (11732532_at) / RFU KRTAP10-11 (11738290_x_at) / Fold change /veh KRTAP10-11 (11738290_x_at) / RFU MYO3A (11730013_a_at) / Fold change /veh MYO3A (11730013_a_at) / RFU EBF3 (11725865_a_at) / Fold change /veh EBF3 (11725865_a_at) / RFU CAMK2N1 (11719241_x_at) / Fold change /veh CAMK2N1 (11719241_x_at) / RFU C5orf56 (11738088_a_at) / Fold change /veh C5orf56 (11738088_a_at) / RFU OLFML3 (11715873_a_at) / Fold change /veh OLFML3 (11715873_a_at) / RFU LOC100653217 /// NTM (11731650_a_at) / Fold change /veh LOC100653217 /// NTM (11731650_a_at) / RFU MAPK11 (11762145_a_at) / Fold change /veh MAPK11 (11762145_a_at) / RFU FIZ1 (11724087_x_at) / Fold change /veh FIZ1 (11724087_x_at) / RFU OASL (11726364_x_at) / Fold change /veh OASL (11726364_x_at) / RFU SOX15 (11748057_x_at) / Fold change /veh SOX15 (11748057_x_at) / RFU CD79A (11719716_a_at) / Fold change /veh CD79A (11719716_a_at) / RFU HIST1H1D (11736915_at) / Fold change /veh HIST1H1D (11736915_at) / RFU CASKIN2 (11723855_a_at) / Fold change /veh CASKIN2 (11723855_a_at) / RFU LOC730098 (11760151_x_at) / Fold change /veh LOC730098 (11760151_x_at) / RFU OR4N2 (11742367_at) / Fold change /veh OR4N2 (11742367_at) / RFU PRRT2 (11749266_a_at) / Fold change /veh PRRT2 (11749266_a_at) / RFU SNX32 (11753110_a_at) / Fold change /veh SNX32 (11753110_a_at) / RFU CDHR5 (11726645_a_at) / Fold change /veh CDHR5 (11726645_a_at) / RFU RCAN1 (11760418_a_at) / Fold change /veh RCAN1 (11760418_a_at) / RFU FAM167A (11723789_a_at) / Fold change /veh FAM167A (11723789_a_at) / RFU FAM26E (11764081_at) / Fold change /veh FAM26E (11764081_at) / RFU ISYNA1 (11749810_s_at) / Fold change /veh ISYNA1 (11749810_s_at) / RFU ACY1 (11761880_at) / Fold change /veh ACY1 (11761880_at) / RFU 11764098_at / Fold change /veh 11764098_at / RFU SAMD14 (11745864_x_at) / Fold change /veh SAMD14 (11745864_x_at) / RFU NPB (11741838_a_at) / Fold change /veh NPB (11741838_a_at) / RFU TMPRSS6 (11731388_a_at) / Fold change /veh TMPRSS6 (11731388_a_at) / RFU KRTAP10-2 (11738614_at) / Fold change /veh KRTAP10-2 (11738614_at) / RFU ARHGAP8 /// PRR5-ARHGAP8 (11727945_x_at) / Fold change /veh ARHGAP8 /// PRR5-ARHGAP8 (11727945_x_at) / RFU KRTAP5-7 /// NADSYN1 (11734609_at) / Fold change /veh KRTAP5-7 /// NADSYN1 (11734609_at) / RFU RASL12 (11751679_a_at) / Fold change /veh RASL12 (11751679_a_at) / RFU CDKN2B (11736163_a_at) / Fold change /veh CDKN2B (11736163_a_at) / RFU PRF1 (11729649_at) / Fold change /veh PRF1 (11729649_at) / RFU, ZNF638 /// ZNF638-IT1 / Fold change vs veh, ZNF638 /// ZNF638-IT1 / RFU, PANK3 / Fold change vs veh, PANK3 / RFU, SH3YL1 / Fold change vs veh, SH3YL1 / RFU, ZEB2 / Fold change vs veh, ZEB2 / RFU, NRIP1 / Fold change vs veh, NRIP1 / RFU, PTTG1IP / Fold change vs veh, PTTG1IP / RFU, CAPN2 / Fold change vs veh, CAPN2 / RFU, MED14 / Fold change vs veh, MED14 / RFU, SNORA58 / Fold change vs veh, SNORA58 / RFU, C1orf63 / Fold change vs veh, C1orf63 / RFU, LRRFIP1 / Fold change vs veh, LRRFIP1 / RFU, NDUFAF7 / Fold change vs veh, NDUFAF7 / RFU, SLC12A2 / Fold change vs veh, SLC12A2 / RFU, IBTK / Fold change vs veh, IBTK / RFU, ESF1 / Fold change vs veh, ESF1 / Fold change vs veh, TMEM50B / RFU, TAOK1 / Fold change vs veh, TAOK1 / RFU, ACBD3 / Fold change vs veh, ACBD3 / RFU, TMA16 / Fold change vs veh, TMA16 / RFU, RWDD3 / Fold change vs veh, RWDD3 / RFU, BCAT1 / Fold change vs veh, BCAT1 / RFU, EDEM3 / Fold change vs veh, EDEM3 / RFU, TMEM33 / Fold change vs veh, TMEM33 / RFU, WDR75 / Fold change vs veh, WDR75 / RFU, AHCTF1 / Fold change vs veh, AHCTF1 / RFU, TFRC / Fold change vs veh, TFRC / RFU, ZDHHC17 / Fold change vs veh, ZDHHC17 / RFU, NOM1 / Fold change vs veh, NOM1 / RFU, ARL8B / Fold change vs veh, ARL8B / RFU, ZBTB11 / Fold change vs veh, ZBTB11 / RFU, TAMM41 / Fold change vs veh, TAMM41 / RFU, KIAA1704 /// LOC100996395 / Fold change vs veh, KIAA1704 /// LOC100996395 / RFU, ING1 / Fold change vs veh, ING1 / RFU, TRMT61B / Fold change vs veh, TRMT61B / RFU, FUBP3 / Fold change vs veh, FUBP3 / RFU, TP53 / Fold change vs veh, TP53 / RFU, TNKS2 / Fold change vs veh, TNKS2 / RFU, ZFP14 / Fold change vs veh, ZFP14 / RFU, ACTR2 / Fold change vs veh, ACTR2 / RFU, PPP3R1 / Fold change vs veh, PPP3R1 / RFU, PIK3R1 / Fold change vs veh, PIK3R1 / RFU, HNRNPA1 / Fold change vs veh, HNRNPA1 / RFU, RNF170 / Fold change vs veh, RNF170 / RFU, ZNF28 / Fold change vs veh, ZNF28 / RFU, RNGTT / Fold change vs veh, RNGTT / RFU, OGT / Fold change vs veh, OGT / RFU, BRD1 / Fold change vs veh, BRD1 / RFU, MARS / Fold change vs veh, MARS / RFU, ZNF655 / Fold change vs veh, ZNF655 / RFU, FAHD1 / Fold change vs veh, FAHD1 / RFU, BDP1 / Fold change vs veh, BDP1 / RFU, LRRCC1 / Fold change vs veh, LRRCC1 / RFU, ARID1A / Fold change vs veh, ARID1A / RFU, ZNF146 / Fold change vs veh, ZNF146 / RFU, ZNF330 / Fold change vs veh, ZNF330 / RFU, GPN3 / Fold change vs veh, GPN3 / RFU, C9orf123 / Fold change vs veh, C9orf123 / RFU, N4BP2L2 / Fold change vs veh, N4BP2L2 / RFU, ARFIP1 / Fold change vs veh, ARFIP1 / RFU, FAM179B / Fold change vs veh, FAM179B / RFU, BCL10 / Fold change vs veh, BCL10 / RFU, UHRF1BP1L / Fold change vs veh, UHRF1BP1L / RFU, BET1 / Fold change vs veh, BET1 / RFU, CNOT2 / Fold change vs veh, CNOT2 / RFU, ZNF268 / Fold change vs veh, ZNF268 / Fold change vs veh, ZNF507 / RFU, DGCR2 / Fold change vs veh, DGCR2 / RFU, WDSUB1 / Fold change vs veh, WDSUB1 / Fold change vs veh, HSP90B1 /// MIR3652 / RFU, ADSS / Fold change vs veh, ADSS / RFU, GK / Fold change vs veh, GK / RFU, ZNF148 / Fold change vs veh, ZNF148 / RFU, TAF9 / Fold change vs veh, TAF9 / RFU, SLC1A5 / Fold change vs veh, SLC1A5 / RFU, SLMO2 / Fold change vs veh, SLMO2 / RFU, ABCC4 / Fold change vs veh, ABCC4 / RFU, LOC101060439 /// RAP1B / Fold change vs veh, LOC101060439 /// RAP1B / RFU, RFX7 / Fold change vs veh, RFX7 / RFU, GTPBP10 / Fold change vs veh, GTPBP10 / RFU, CNEP1R1 / Fold change vs veh, CNEP1R1 / RFU, BIVM-ERCC5 /// ERCC5 / Fold change vs veh, BIVM-ERCC5 /// ERCC5 / RFU, ILF3 / Fold change vs veh, ILF3 / RFU 11762660_at / Fold change /veh 11762660_at / RFU VCAN (11757783_s_at) / Fold change /veh VCAN (11757783_s_at) / RFU DDX43 (11728927_at) / Fold change /veh DDX43 (11728927_at) / RFU KRT8 (11758188_x_at) / Fold change /veh KRT8 (11758188_x_at) / RFU NKD1 (11759106_at) / Fold change /veh NKD1 (11759106_at) / RFU SRD5A1 (11742802_a_at) / Fold change /veh SRD5A1 (11742802_a_at) / RFU TPSAB1 /// TPSB2 (11721975_s_at) / Fold change /veh TPSAB1 /// TPSB2 (11721975_s_at) / RFU GSTM3 (11746129_a_at) / Fold change /veh GSTM3 (11746129_a_at) / RFU IL23R (11737362_x_at) / Fold change /veh IL23R (11737362_x_at) / RFU TMEM51 (11727254_a_at) / Fold change /veh TMEM51 (11727254_a_at) / RFU PIWIL2 (11732686_x_at) / Fold change /veh PIWIL2 (11732686_x_at) / RFU ORM1 (11744905_x_at) / Fold change /veh ORM1 (11744905_x_at) / RFU CCDC152 (11743942_at) / Fold change /veh CCDC152 (11743942_at) / RFU ECM1 (11717891_a_at) / Fold change /veh ECM1 (11717891_a_at) / RFU IL23R (11748794_a_at) / Fold change /veh IL23R (11748794_a_at) / RFU TNFAIP8L3 (11732012_x_at) / Fold change /veh TNFAIP8L3 (11732012_x_at) / RFU MBOAT4 (11741988_at) / Fold change /veh MBOAT4 (11741988_at) / RFU 11764193_at / Fold change /veh 11764193_at / RFU TMEM53 (11763286_at) / Fold change /veh TMEM53 (11763286_at) / RFU MAGEB2 (11727129_at) / Fold change /veh MAGEB2 (11727129_at) / RFU TMEM200A (11744735_a_at) / Fold change /veh TMEM200A (11744735_a_at) / RFU CCDC152 (11751479_a_at) / Fold change /veh CCDC152 (11751479_a_at) / RFU FAM211A (11726209_a_at) / Fold change /veh FAM211A (11726209_a_at) / RFU RGS16 (11746705_a_at) / Fold change /veh RGS16 (11746705_a_at) / RFU VCAN (11755009_s_at) / Fold change /veh VCAN (11755009_s_at) / RFU RHOB (11743442_s_at) / Fold change /veh RHOB (11743442_s_at) / RFU RGS16 (11720943_a_at) / Fold change /veh RGS16 (11720943_a_at) / RFU RGS16 (11720944_at) / Fold change /veh RGS16 (11720944_at) / RFU, VPS4B / Fold change vs veh, VPS4B / RFU, CREB1 / Fold change vs veh, CREB1 / RFU, DNAJC13 / Fold change vs veh, DNAJC13 / RFU, GNAQ / Fold change vs veh, GNAQ / RFU, CDK5R1 / Fold change vs veh, CDK5R1 / RFU, ZRANB3 / Fold change vs veh, ZRANB3 / RFU, CUL4A / Fold change vs veh, CUL4A / RFU, CCNY / Fold change vs veh, CCNY / RFU, UFL1 / Fold change vs veh, UFL1 / RFU, COG3 / Fold change vs veh, COG3 / RFU, DIAPH2 / Fold change vs veh, DIAPH2 / RFU, SKA2 / Fold change vs veh, SKA2 / RFU, AFF3 / Fold change vs veh, AFF3 / RFU, LMF1 / Fold change vs veh, LMF1 / RFU, IPO11 / Fold change vs veh, IPO11 / RFU, DFFB / Fold change vs veh, DFFB / RFU, FOXP1 / Fold change vs veh, FOXP1 / RFU, CARD8 / Fold change vs veh, CARD8 / RFU, STRN3 / Fold change vs veh, STRN3 / RFU, ADK / Fold change vs veh, ADK / RFU, RASSF2 / Fold change vs veh, RASSF2 / RFU, WIPF1 / Fold change vs veh, WIPF1 / RFU, LARP1B / Fold change vs veh, LARP1B / RFU, RASA1 / Fold change vs veh, RASA1 / RFU, RB1 / Fold change vs veh, RB1 / RFU, PPFIA1 / Fold change vs veh, PPFIA1 / RFU, MAT2A / Fold change vs veh, MAT2A / RFU, CCT5 / Fold change vs veh, CCT5 / RFU, WDR92 / Fold change vs veh, WDR92 / RFU, CUX1 / Fold change vs veh, CUX1 / RFU, TTC7A / Fold change vs veh, TTC7A / RFU, TMEM135 / Fold change vs veh, TMEM135 / RFU, DEPTOR / Fold change vs veh, DEPTOR / RFU, CPM / Fold change vs veh, CPM / RFU, DNAJB6 / Fold change vs veh, DNAJB6 / RFU, CACNA2D3 / Fold change vs veh, CACNA2D3 / RFU, DTX4 / Fold change vs veh, DTX4 / RFU, TFCP2 / Fold change vs veh, TFCP2 / RFU, GMCL1 /// GMCL1P1 / Fold change vs veh, GMCL1 /// GMCL1P1 / RFU, AEBP2 / Fold change vs veh, AEBP2 / RFU, SNHG1 /// SNORD22 /// SNORD25 /// SNORD26 /// SNORD27 /// SNORD28 /// SNORD29 /// SNORD31 / Fold change vs veh, SNHG1 /// SNORD22 /// SNORD25 /// SNORD26 /// SNORD27 /// SNORD28 /// SNORD29 /// SNORD31 / Fold change (Aza/veh), C12orf56 (ProbeSet 11735607_a_at) / Fold change (ACY-1035/veh), C12orf56 (ProbeSet 11735607_a_at) / Fold change (Aza/veh), FGFR1OP (ProbeSet 11751329_s_at) / Fold change (ACY-1035/veh), FGFR1OP (ProbeSet 11751329_s_at) / Fold change (Aza/veh), VPS36 (ProbeSet 11739960_a_at) / Fold change (ACY-1035/veh), VPS36 (ProbeSet 11739960_a_at) / RFU SYPL1 (11715823_x_at) / Fold change /veh SYPL1 (11715823_x_at) / RFU IGFBP7 (11715501_s_at) / Fold change /veh IGFBP7 (11715501_s_at) / RFU REEP3 (11722064_at) / Fold change /veh REEP3 (11722064_at) / RFU IGLL1 (11728026_x_at) / Fold change /veh IGLL1 (11728026_x_at): dose or concentration left out as unconfirmed
# Conditions: MV-4-11 cells, 48 hours
smiles,measurement,value
Nc1ccc(-c2cccs2)cc1NC(=O)c1ccc2c(c1)cc(C1CC1)n2CCN1CCOCC1 [ACY-1035],Fold change /veh PRRT2 (11749266_a_at),1.00

# Reference: publication PMC5218480 (PLoS ONE, 2017)
